Data published in patent publication US9045491B2, “Thienyl [3,2-D] pyrimidin-4-one compounds, preparation method, pharmaceutical compositions and use thereof” (SHANGHAI INSTITUTE OF MATERIA MEDICA, CHINESE ACADEMY OF …, priority 2011, dated 2015).

Experiments:
Format in all cases: biochemical
human DPP IV = target: T1, human DPP IV (Homo sapiens, UniProt P27487); test: DPP IV activity screening (Ala-Pro-AMC fluorescence)
T1 construct: extracellular fragment of protease DPP IV (aa29-766); made in house; host or cells: baculovirus expression system Bac-to-Bac
T1 sequence (P27487 29-766): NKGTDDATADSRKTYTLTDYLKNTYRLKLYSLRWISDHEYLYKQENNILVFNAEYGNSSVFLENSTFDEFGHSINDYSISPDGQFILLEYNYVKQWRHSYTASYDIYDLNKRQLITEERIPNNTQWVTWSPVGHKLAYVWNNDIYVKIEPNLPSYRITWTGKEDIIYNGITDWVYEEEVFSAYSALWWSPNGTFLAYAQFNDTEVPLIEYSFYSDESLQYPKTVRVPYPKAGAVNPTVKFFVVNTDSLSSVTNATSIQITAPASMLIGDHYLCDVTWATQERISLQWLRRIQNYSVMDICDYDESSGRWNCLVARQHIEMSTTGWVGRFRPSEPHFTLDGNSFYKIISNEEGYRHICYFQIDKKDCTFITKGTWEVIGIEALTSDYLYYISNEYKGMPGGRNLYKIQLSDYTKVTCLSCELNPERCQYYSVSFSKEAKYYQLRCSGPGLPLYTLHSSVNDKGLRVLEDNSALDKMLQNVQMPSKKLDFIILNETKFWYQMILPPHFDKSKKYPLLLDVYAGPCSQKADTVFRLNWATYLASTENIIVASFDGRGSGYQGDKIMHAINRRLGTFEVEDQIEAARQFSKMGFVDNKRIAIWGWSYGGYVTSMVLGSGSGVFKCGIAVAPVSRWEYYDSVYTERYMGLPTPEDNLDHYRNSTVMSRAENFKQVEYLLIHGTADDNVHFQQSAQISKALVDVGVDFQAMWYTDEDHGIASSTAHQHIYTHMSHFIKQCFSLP
Experimental: (§1) Screening method: dipeptidyl peptidase IV (DPP IV) activity screening, dipeptidyl peptidase 7 (DPP 7), dipeptidyl peptidase 8 (DPP 8) activity screening, and dipeptidyl peptidase 9 (DPP 9) activity screening.
Instruments: Microplate Reader (PerkinElmer, USA).
The linear change of fluorescence value at 460 nm in unit time was dynamically measured and DPP IV activity was obtained by calculation.
(§2) Sample treatment: the sample was dissolved in DMSO and stored in low temperature. The concentration of DMSO in the final system was controlled so that the detected activity was not affected.
(§3) The activity of sample was tested under the selected single concentration from preliminary screening, for example, 20 μg/mL. […] The software for calculation was Graphpad Prism 4 and the model used for fitting was sigmoidal dose-response (variable slope). For most inhibitor screening models, the bottom and top of the fitting curve were set to 0 and 100.

human DPP 8 = target: T2, human DPP 8 (Homo sapiens, UniProt Q6V1X1); test: DPP 8 activity screening (Ala-Pro-AMC fluorescence); details: N.I. = No Inhibition
T2 construct: made in house; host or cells: insect cells, baculovirus Bac-to-Bac
T2 sequence (Q6V1X1 whole entry): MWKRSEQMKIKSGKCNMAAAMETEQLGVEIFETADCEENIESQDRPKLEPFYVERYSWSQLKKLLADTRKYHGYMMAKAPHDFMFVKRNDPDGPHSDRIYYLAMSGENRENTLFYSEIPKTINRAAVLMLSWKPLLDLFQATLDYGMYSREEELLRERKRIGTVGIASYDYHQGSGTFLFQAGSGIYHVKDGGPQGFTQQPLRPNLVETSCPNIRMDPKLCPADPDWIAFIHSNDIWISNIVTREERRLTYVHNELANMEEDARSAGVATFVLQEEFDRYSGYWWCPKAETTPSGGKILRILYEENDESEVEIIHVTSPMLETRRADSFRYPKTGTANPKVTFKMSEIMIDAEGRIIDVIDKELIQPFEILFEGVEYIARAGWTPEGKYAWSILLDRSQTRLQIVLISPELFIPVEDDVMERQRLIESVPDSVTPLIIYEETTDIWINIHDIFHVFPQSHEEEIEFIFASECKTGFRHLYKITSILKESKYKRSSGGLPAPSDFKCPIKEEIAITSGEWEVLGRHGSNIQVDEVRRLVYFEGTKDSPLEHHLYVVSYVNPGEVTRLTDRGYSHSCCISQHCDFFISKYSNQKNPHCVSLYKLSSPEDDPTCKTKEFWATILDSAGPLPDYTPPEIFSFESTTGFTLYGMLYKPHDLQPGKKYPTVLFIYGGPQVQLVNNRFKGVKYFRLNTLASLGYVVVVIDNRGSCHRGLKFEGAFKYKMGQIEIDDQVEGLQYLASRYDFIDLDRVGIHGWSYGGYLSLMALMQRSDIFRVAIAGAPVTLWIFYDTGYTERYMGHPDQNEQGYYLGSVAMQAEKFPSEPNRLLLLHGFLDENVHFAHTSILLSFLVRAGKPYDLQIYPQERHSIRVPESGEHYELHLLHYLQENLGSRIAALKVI
Text: as §1
(§4) Materials: human DPP IV, obtained extracellular fragment of protease DPP IV (aa29-766), was expressed and purified by our laboratory using baculovirus expression system Bac-to-Bac (purchased from GIBCO company) in accordance with the conventional experimental technology; human DPP 8 was obtained in insect cells by our laboratory using baculovirus expression system Bac-to-Bac (purchased from GIBCO company) in accordance with the conventional experimental technology; Human DPP 9 was obtained in insect cells by our laboratory using baculovirus expression system Bac-to-Bac (purchased from GIBCO company) in accordance with the conventional experimental technology; and the substrate Ala-Pro-AMC was synthesized by GL Biochem (Shanghai) Ltd.
(§5) Principle of Activity test: DPP IV, DPP 8 and DPP 9 can specifically hydrolyze the substrate Ala-Pro-AMC to form product AMC, and AMC is excited by 355 nm of UV light to generate 460 nm of emission light. The linear change of fluorescence value at 460 nm in unit time was dynamically measured and DPP IV activity was obtained by calculation.
as §2, §3

[1] = target: dipeptidyl peptidase 7 (DPP 7) (Homo sapiens, UniProt Q9UHL4); test: DPP 7 activity screening; details: N.I. = No Inhibition
Experimental: as §1, §2, §3

FAP = target: T3, FAP (Homo sapiens, UniProt Q12884); test: FAP inhibition (Table 1); details: N.I. = No Inhibition
T3 sequence (Q12884 1-760): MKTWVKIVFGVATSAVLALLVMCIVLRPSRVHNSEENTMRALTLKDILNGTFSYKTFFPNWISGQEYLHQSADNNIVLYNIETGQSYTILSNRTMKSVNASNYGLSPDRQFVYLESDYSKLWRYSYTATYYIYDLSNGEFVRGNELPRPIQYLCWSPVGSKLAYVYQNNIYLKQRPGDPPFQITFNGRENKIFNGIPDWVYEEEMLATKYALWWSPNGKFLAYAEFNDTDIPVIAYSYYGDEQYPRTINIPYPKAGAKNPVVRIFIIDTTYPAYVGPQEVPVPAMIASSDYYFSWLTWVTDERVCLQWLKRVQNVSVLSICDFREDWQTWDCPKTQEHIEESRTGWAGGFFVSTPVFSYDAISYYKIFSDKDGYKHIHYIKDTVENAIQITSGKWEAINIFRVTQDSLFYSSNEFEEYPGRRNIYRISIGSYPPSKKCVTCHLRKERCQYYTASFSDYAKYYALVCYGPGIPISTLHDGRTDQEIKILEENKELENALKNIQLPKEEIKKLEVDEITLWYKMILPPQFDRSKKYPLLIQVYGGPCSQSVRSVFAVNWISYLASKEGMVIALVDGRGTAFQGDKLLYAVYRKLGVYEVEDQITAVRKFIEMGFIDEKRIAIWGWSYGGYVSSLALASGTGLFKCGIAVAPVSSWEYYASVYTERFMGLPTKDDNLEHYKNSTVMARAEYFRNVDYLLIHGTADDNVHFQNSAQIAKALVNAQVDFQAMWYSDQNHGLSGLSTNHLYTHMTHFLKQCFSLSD

Human DPP 9 = target: T4, Human DPP 9 (Homo sapiens, UniProt Q86TI2); test: DPP 9 activity screening (Ala-Pro-AMC fluorescence); details: N.I. = No Inhibition
T4 construct: made in house; host or cells: insect cells, baculovirus Bac-to-Bac
T4 sequence (Q86TI2 whole entry): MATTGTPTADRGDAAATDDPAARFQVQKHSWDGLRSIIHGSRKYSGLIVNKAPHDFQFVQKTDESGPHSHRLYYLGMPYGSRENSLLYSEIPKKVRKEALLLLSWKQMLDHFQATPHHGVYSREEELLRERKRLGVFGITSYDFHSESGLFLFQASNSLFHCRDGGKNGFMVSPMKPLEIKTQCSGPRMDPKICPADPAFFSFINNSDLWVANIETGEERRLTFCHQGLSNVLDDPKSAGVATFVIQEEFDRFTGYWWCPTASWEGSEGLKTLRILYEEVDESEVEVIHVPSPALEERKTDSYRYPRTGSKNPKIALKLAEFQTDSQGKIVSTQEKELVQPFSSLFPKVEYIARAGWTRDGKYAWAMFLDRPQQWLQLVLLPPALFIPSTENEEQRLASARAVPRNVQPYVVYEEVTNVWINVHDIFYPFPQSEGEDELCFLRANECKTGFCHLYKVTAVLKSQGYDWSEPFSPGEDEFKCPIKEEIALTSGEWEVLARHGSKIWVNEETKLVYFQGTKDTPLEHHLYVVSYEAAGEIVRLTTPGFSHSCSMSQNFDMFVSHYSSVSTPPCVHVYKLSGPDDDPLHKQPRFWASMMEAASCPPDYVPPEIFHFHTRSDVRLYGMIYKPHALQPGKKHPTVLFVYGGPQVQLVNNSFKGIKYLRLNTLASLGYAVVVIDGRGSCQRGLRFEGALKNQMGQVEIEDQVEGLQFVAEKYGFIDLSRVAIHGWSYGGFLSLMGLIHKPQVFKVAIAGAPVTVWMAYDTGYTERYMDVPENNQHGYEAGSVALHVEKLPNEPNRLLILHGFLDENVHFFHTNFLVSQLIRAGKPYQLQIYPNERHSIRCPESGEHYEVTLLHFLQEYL
Text: as §1, §4, §5, §2, §3

SMILES	IC50 (human DPP IV) [µM]	IC50 (human DPP 8) [µM]	DPP 7 IC50 [1]	IC50 (FAP) [µM]	IC50 (Human DPP 9) [µM]	IC50 [1] [µM]	DPP 8 IC50 (human DPP 8)	FAP IC50 (FAP)	DPP 9 IC50 (Human DPP 9)
COC(=O)[C@H](Cc1ccc(O)cc1)NC(=O)c1csc2c(=O)n(Cc3ccccc3C#N)c(N3CCC[C@@H](N)C3)nc12 [Compound 62, (S)-methyl 2-(2-((R)-3-aminopiperidin-1-yl)-3-(2-cyanobenzyl)-4-oxo-3,4-dihydrothieno[3,2-d]pyrimidine-7-carboxamido)-3-(4-hydroxyphenyl)-propanoate]	0.0492	12.3	N.I.	37.4	54.8				
CN(C)C(=O)c1csc2c(=O)n(Cc3ccccc3C#N)c(N3CCC[C@@H](N)C3)nc12 [Compound 63, (R)-2-(3-aminopiperidin-1-yl)-3-(2-cyanobenzyl)-N,N-dimethyl-4-oxo-3,4-dihydrothieno[3,2-d]pyrimidine-7-carboxamide]	0.0275	47.9	N.I.	170	189				
Cc1ccc(CNC(=O)c2csc3c(=O)n(Cc4ccccc4C#N)c(N4CCC[C@@H](N)C4)nc23)cc1 [Compound 64, (R)-2-(3-aminopiperidin-1-yl)-3-(2-cyanobenzyl)-N-(4-methylbenzyl)-4-oxo-3,4-dihydrothieno[3,2-d]-pyrimidine-7-carboxamide]	0.0332	5.81		9.38	39.7	52			
N#Cc1ccccc1Cn1c(N2CCC[C@@H](N)C2)nc2c(C(=O)NC3CC3)csc2c1=O [Compound 65, (R)-2-(3-aminopiperidin-1-yl)-3-(2-cyanobenzyl)-N-cyclopropyl-4-oxo-3,4-dihydrothieno[3,2-d]pyrimidine-7-carboxamide]	0.0302	44.8	N.I.	75.5	137				
COC(=O)[C@@H](NC(=O)c1csc2c(=O)n(Cc3ccccc3C#N)c(N3CCC[C@@H](N)C3)nc12)c1ccccc1 [Compound 66, (S)-methyl 2-(2-((R)-3-aminopiperidin-1-yl)-3-(2-cyanobenzyl)-4-oxo-3,4-dihydrothieno[3,2-d]pyrimidine-7-carboxamido)-2-phenylacetate]	0.0358	14.4	N.I.	18.8	47.1				
N#Cc1ccccc1Cn1c(N2CCC[C@@H](N)C2)nc2c(C(=O)N3CCOCC3)csc2c1=O [Compound 69, (R)-2-((2-(3-aminopiperidin-1-yl)-7-(morpholine-4-carbonyl)-4-oxothieno-[3,2-d]pyrimidin-3(4H)-yl)methyl)-benzonitrile]	0.0321		N.I.				N.I.	N.I.	N.I.
N#Cc1ccccc1Cn1c(N2CCC[C@@H](N)C2)nc2c(C(=O)N3CCCC3)csc2c1=O [Compound 76, (R)-2-((2-(3-aminopiperidin-1-yl)-4-oxo-7-(pyrrolidine-1-carbonyl)thieno-[3,2-d]pyrimidin-3(4H)-yl)methyl)-benzonitrile]	0.0816		N.I.				N.I.	N.I.	N.I.
CC(C)CCNC(=O)c1csc2c(=O)n(Cc3ccccc3C#N)c(N3CCC[C@@H](N)C3)nc12 [Compound 78, (R)-2-(3-aminopiperidin-1-yl)-3-(2-cyanobenzyl)-N-isopentyl-4-oxo-3,4-dihydrothieno[3,2-d]pyrimidine-7-carboxamlde]	0.0288	60.4		64.3	407	27.1			

Now those with a lower IC50 (human DPP IV), led by results:

IC50 (human DPP IV) [µM]	IC50 (human DPP 8) [µM]	DPP 7 IC50 [1]	IC50 (FAP) [µM]	IC50 (Human DPP 9) [µM]	IC50 [1] [µM]	DPP 8 IC50 (human DPP 8)	FAP IC50 (FAP)	DPP 9 IC50 (Human DPP 9)	SMILES
0.0137	24.9	N.I.	28.1	53					COC(=O)[C@H](Cc1ccccc1)NC(=O)c1csc2c(=O)n(Cc3ccccc3C#N)c(N3CCC[C@@H](N)C3)nc12 [Compound 67, (S)-methyl 2-(2-((R)-3-aminopiperidin-1-yl)-3-(2-cyanobenzyl)-4-oxo-3,4-dihydrothieno[3,2-d]pyrimidine-7-carboxamido)-3-phenylpropanoate]
0.023	8.16		8.78	100	145				N#Cc1ccccc1Cn1c(N2CCC[C@@H](N)C2)nc2c(C(=O)NCc3ccc(C(F)(F)F)cc3)csc2c1=O [Compound 68, (R)-2-(3-aminopiperidin-1-yl)-3-(2-cyanobenzyl)-4-oxo-N-(4-(trifluoromethyl)benzyl)-3,4-dihydrothieno[3,2-d]pyrimidine-7-carboxamide]
0.0186	38.9	N.I.	136	94.5					CN1CCN(C(=O)c2csc3c(=O)n(Cc4ccccc4C#N)c(N4CCC[C@@H](N)C4)nc23)CC1 [Compound 70, (R)-2-((2-(3-aminopiperidin-1-yl)-7-(4-methylpiperazine-1-carbonyl)-4-oxothieno[3,2-d]pyrimidin-3(4H)-yl)-methyl)benzonitrile]
0.0143	26.8		52.1	238	144				CCNC(=O)c1csc2c(=O)n(Cc3ccccc3C#N)c(N3CCC[C@@H](N)C3)nc12 [Compound 71, (R)-2-(3-aminopiperidin-1-yl)-3-(2-cyanobenzyl)-N-ethyl-4-oxo-3,4-dihydrothieno[3,2-d]pyrimidine-7-carboxamide]
0.0151	30.1	N.I.	39.4	149					CC(C)NC(=O)c1csc2c(=O)n(Cc3ccccc3C#N)c(N3CCC[C@@H](N)C3)nc12 [Compound 72, (R)-2-(3-aminopiperidin-1-yl)-3-(2-cyanobenzyl)-N-isopropyl-4-oxo-3,4-dihydrothieno[3,2-d]pyrimidine-7-carboxamide]
0.00892	9.08		14.6	66.8	159				N#Cc1ccccc1Cn1c(N2CCC[C@@H](N)C2)nc2c(C(=O)NCC3CC3)csc2c1=O [Compound 73, (R)-2-(3-aminopiperidin-1-yl)-3-(2-cyanobenzyl)-N-(cyclopropylmethyl)-4-oxo-3,4-dihydrothieno[3,2-d]-pyrimidine-7-carboxamide]
0.0106	18.4	N.I.	30.6	92.9					COCCNC(=O)c1csc2c(=O)n(Cc3ccccc3C#N)c(N3CCC[C@@H](N)C3)nc12 [Compound 74, (R)-2-(3-aminopiperidin-1-yl)-3-(2-cyanobenzyl)-N-(2-methoxyethyl)-4-oxo-3,4-dihydrothieno[3,2-d]pyrimidine-7-carboxamide]
0.00815	23	N.I.	28.3	91.7					COCCCNC(=O)c1csc2c(=O)n(Cc3ccccc3C#N)c(N3CCC[C@@H](N)C3)nc12 [Compound 75, (R)-2-(3-aminopiperidin-1-yl)-3-(2-cyanobenzyl)-N-(3-methoxypropyl)-4-oxo-3,4-dihydrothieno[3,2-d]pyrimidine-7-carboxamide]
0.0111	49.4		45.2		30			N.I.	CCCCNC(=O)c1csc2c(=O)n(Cc3ccccc3C#N)c(N3CCC[C@@H](N)C3)nc12 [Compound 77, (R)-2-(3-aminopiperidln-1-yl)-N-butyl-3-(2-cyanobenzyl)-4-oxo-3,4-dihydrothieno[3,2-d]pyrimidine-7-carboxamide]
